The values below come from patent US20090074716A1, “METHOD FOR TREATING INFLUENZA VIRUS INFECTION” (priority 2006, published 2009).

Data set [1] deals with avian influenza A virus A/FPV/Bratislava/79. The arrangement: species or system C57B1/6 mice. To be noted: mouse, in vivo.
The test system of the next data set is TRAIL and FasL/CD95L. Format: cell-based, human.
Data set [2] concerns avian influenza A virus A/FPV/Bratislava/79. The data set is classed as cell-based, human lung epithelium cell line A549.
In data set [3] the test system is IκBα. As to the kind of experiment: TNFα-induced IκBα degradation (NF-κB activation), Western blot, A549 cells. To be noted: 1 h pre-incubation, 15 min TNFα. The data set is classed as cell-based, human. Background: In western blotting, separated proteins are transferred to a membrane and probed.
Data set [4] has as its system avian influenza virus A/FPV/Bratislava/79 (H7N7). Format: cell-based, human A549 lung epithelium carcinoma cells.
The conditions of data set [5]: after intravenous application; cited from earlier work.
In data set [6] the test system is IκBα. As to the kind of experiment: TNFα-induced IκBα degradation (NF-κB activation), Western blot, HEK293 cells. To be noted: 1 h pre-incubation, 15 min TNFα. Format: cell-based.
A further data set has as its system 26S proteasome. To be noted: cited from earlier work.

Entries after “also recorded” stand apart in the source; their conditions may differ. Where a SMILES comes first, the peptide text is derived from it. The star is where a group is joined. Cbz = O=C(OCc1ccccc1)*

With `CC(C)C[C@@H](C=O)NC(=O)[C@H](CC(C)C)NC(=O)[C@H](CC(C)C)NC(=O)OCc1ccccc1` [MG132, N-carbobenzoxy-L-leucinyl-L-leucinyl-L-leucinal] (Cbz-Leu-Leu-Leu-aldehyde), the “survival rate of infected mice versus untreated controls” value in data set [1] is “significantly increased”. In the data set on TRAIL and FasL/CD95L, the “virus-induced expression of FasL” value is reported as “clearly reduced; also recorded: blocks” and the “virus-induced expression of TRAIL” value is on record as “clearly reduced; also recorded: blocks”. For the same compound, in data set [2], the influenza virus replication entry is on record as “blocks” and the “reduction of the virus titre” value is recorded as “up to 10 times”.

For the compound `CC(C)C[C@H](NC(=O)[C@H](Cc1ccccc1)NC(=O)c1cnccn1)B(O)O` [PS341, pyranosyl-phenyl-leucinyl-boric acid], the “prevention of TNFα-induced IκBα-degradation” value with IκBα [3] (100 nM) and in the data set on IκBα [6] (100 nM) was “not in a position to prevent” throughout. In data set [4], the “reduction of the virus titre” value was “over 2 logarithmic levels”. The biological availability result in data set [5] is “biologically available”.

Turning to `CC(C)c1nc(CN(C)C(=O)N[C@H](C(=O)N[C@@H](Cc2ccccc2)C[C@H](O)[C@H](Cc2ccccc2)NC(=O)OCc2cncs2)C(C)C)cs1` [Ritonavir], the “concentration with unspecific effect on the proteasome” value with 26S proteasome was “approx. 10 micrograms”.

For `CC(=O)N[C@@H](CSC(=O)[C@]1([C@@H](O)C(C)C)NC(=O)[C@H](C)[C@@H]1O)C(=O)O` [lactacysteine], the “blocking of TNFα-induced IκBα-degradation” value in the data set on IκBα [3] (1 μM) and with IκBα [6] (1 μM) was “not effective enough to block” each time. Also, the “reduction of the virus titre” value in data set [4] is listed as “reduction”.
